This is an account of results in patent US10138222B2, “Substituted benzamides as RIPK2 inhibitors” (Boehringer Ingelheim International GmbH, priority 2016, dated 2018).

The test addresses RIPK2 (Homo sapiens (Human), UniProt O43353). Description: RIPK2 inhibition, ADP-Glo Kinase Assay. The conditions noted are these: 8His-RIPK2 FL enzyme 8 nM, ATP 5 μM, 15 minutes pre-incubation, 60 minutes at 37° C., luminescence. It counts as biochemical. On the procedure:
RIPK2 inhibition for compounds in Table 1 are shown in Table 3 and measured using the following method:
Materials: White, 384-well optiplates (cat.no. 6007290) were purchased from PerkinElmer. The V9103X ADP-Glo Kinase Assay Custom (including ultra-pure ATP) was purchased from Promega. 8His-RIPK2 FL was prepared in-house. All other materials were of highest grade commercially available.
Method: In a 384-well plate, test compound diluted in assay buffer (1% DMSO final) is mixed with 8His-RIPK2 FL enzyme (final concentration of 8 nM). After 15 minutes of pre-incubation at RT, ATP dissolved in assay buffer is added (final concentration 5 μM). The mixture is incubated for 60 minutes at 37° C. in a humidified incubator. Then, ADP Glo Reagent is added, followed by a 40 minute incubation at rt. Finally, Kinase Detection Reagent is added and the entire mixture is incubated for 40 min at RT. The luminescence signal is measured with an Envision reader to determine the amount of ADP produced. Assay buffer: 25 mM HEPES (4-(2-hydroxyethyl)-1-piperazinethanesulfonic acid), 0.1% BSA (bovine serum albumin), 10 mM MgCl2, 5 mM MnCl2, 50 mM KCl, 0.01% CHAPS (3-[(3-cholamidopropyl)dimethylammonio]-1-propanesulfonate), 10 μM Na3VO4, 1 mM DTT (dithiothreitol), pH 7.5 All plates contain wells with vehicle controls instead of compound (1% DMSO) as reference for the high signal (100% CTL (100% of control), high signal), and wells without enzyme as reference for low signal (0% CTL, low signal). The luminescent signal generated is proportional to the ADP produced and is correlated with enzyme activity. The analysis of the data is performed by the calculation of the percentage of ADP production in the presence of the test compound and RIPK2 as compared to the ADP production in the presence of RIPK2 plus 50 μM Gefitinib. (RLU (relative luminescence units) (sample)−RLU(low control))*100/(RLU(high value)−RLU(low control)) [RLU=relative luminescence units].
(In general: ADP-Glo first removes unused ATP, then detects ADP through luciferase.)

The structures appear in SMILES notation.

Sequence of RIPK2 (O43353 whole entry): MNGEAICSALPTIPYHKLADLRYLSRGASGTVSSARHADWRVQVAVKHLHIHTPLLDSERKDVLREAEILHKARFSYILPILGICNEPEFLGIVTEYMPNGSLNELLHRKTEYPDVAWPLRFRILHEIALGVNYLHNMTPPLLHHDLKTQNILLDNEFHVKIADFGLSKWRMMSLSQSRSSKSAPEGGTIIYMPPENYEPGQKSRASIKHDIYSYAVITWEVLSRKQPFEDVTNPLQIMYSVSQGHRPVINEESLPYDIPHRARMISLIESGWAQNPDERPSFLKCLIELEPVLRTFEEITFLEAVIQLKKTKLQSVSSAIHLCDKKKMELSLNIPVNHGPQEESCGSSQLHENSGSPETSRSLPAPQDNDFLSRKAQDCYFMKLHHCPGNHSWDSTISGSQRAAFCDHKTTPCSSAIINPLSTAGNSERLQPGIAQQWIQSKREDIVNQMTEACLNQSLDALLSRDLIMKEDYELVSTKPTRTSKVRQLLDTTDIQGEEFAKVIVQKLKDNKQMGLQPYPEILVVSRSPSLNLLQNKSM

The term IC50 denotes the concentration at which inhibition is half-maximal. `Cc1ccc(C(=O)NC2CC2)cc1-c1cnn(-c2cncc(CN3CCOCC3=O)c2)c1` [Example 135, N-cyclopropyl-4-methyl-3-(1-{5-[(3-oxomorpholin-4-yl)methyl]pyridin-3-yl}-1H-pyrazol-4-yl)benzamide] came in with an IC50 of 120 nM.
The result for `Cc1ccc(C(=O)NC2CC2)cc1-c1cn(-c2cncc(C3CC3)c2)cn1` [Example 71, N-cyclopropyl-3-[1-(5-cyclopropyl-pyridin-3-yl)-1H-imidazol-4-yl]-4-methylbenzamide] reads 2.7 nM; that for `Cc1ccc(C(=O)NC2CC2)cc1-c1cnn(-c2cncc([C@H]3CCC(=O)N3C)c2)c1` [Example 125, N-cyclopropyl-4-methyl-3-(1-{5-[(2R)-1-methyl-5-oxopyrrolidin-2-yl]pyridin-3-yl}-1H-pyrazol-4-yl)benzamide], 130 nM; that for `O=C(NC1CC1)c1cc(-c2cnn(-c3cncc(C4CC4)c3)c2)c(Cl)cc1F` [Example 104, 4-chloro-N-cyclopropyl-5-[1-(5-cyclopropylpyridin-3-yl)-1H-pyrazol-4-yl]-2-fluorobenzamide], 1.9 nM.
The result for `Cc1ccc(C(=O)NC2CC2)cc1-c1cnn(-c2cncc(NC(=O)CF)c2)c1` [Example 116, N-cyclopropyl-3-{1-[5-(2-fluoroacetamido)pyridin-3-yl]-1H-pyrazol-4-yl}-4-methylbenzamide] reads 7.2 nM.
The result for `Cc1ccc(C(=O)NC2CC2)cc1-c1cnn(-c2cncc(NC3CCN(C4CCOCC4C)CC3)c2)c1` (stereo not shown) [Example 164, N-cyclopropyl-4-methyl-3-[1-(5-{[1-(3-methyloxan-4-yl)piperidin-4-yl]amino}pyridin-3-yl)-1H-pyrazol-4-yl]benzamide] reads 2.1 nM.
Consider `CC(=O)N1CCC(Oc2cncc(-n3cc(-c4cc(C(=O)NC5CC5)ccc4C)cn3)c2)CC1` [Example 149, 3-(1-{5-[(1-acelylpiperidin-4-yl)oxy]pyridin-3-yl}-1H-pyrazol-4-yl)-N-cyclopropyl-4-methyl-benzamide], for which 8.9 nM corresponded to half-maximal inhibition (IC50).
`COC1COCCC1N1CCC(Nc2cncc(-n3cc(-c4cc(C(=O)NC5CC5)ccc4C)cn3)c2)CC1` (stereo not shown) [Example 163, N-cyclopropyl-3-[1-(5-{[1-(3-methoxyoxan-4-yl)piperidin-4-yl]amino}pyridin-3-yl)-1H-pyrazol-4-yl]-4-methylbenzamide] registered an IC50 of 1.1 nM.
As for `Cc1cc(F)c(C(=O)NC2CC2)cc1-c1cnn(-c2cncc(N[C@@H]3CCN(C)C[C@@H]3F)c2)c1` [Example 170], the IC50 was 1.8 nM.
The result for `Cc1ccc(C(=O)NC2CC2)cc1-c1cnn(-c2cncc(NC3CCN(C)CC3)c2)c1` [Example 76, N-cyclopropyl-4-methyl-3-(1-{5-[(1-methylpiperidin-4-yl)amino]pyridin-3-yl}-1H-pyrazol-4-yl)benzamide] reads 0.61 nM.
The compound `COCC(=O)Nc1cncc(-n2cc(-c3cc(C(=O)NC4CC4)ccc3C)cn2)c1` [Example 112, N-cyclopropyl-3-{1-[5-(2-methoxyacetamido)pyridin-3-yl]-1H-pyrazol-4-yl}-4-methylbenzamide] registered an IC50 of 7.8 nM.
On to `Cc1ccc(C(=O)NC2CC2)cc1-c1cnn(-c2cncc(N(C)C)c2)c1` [Example 44, N-cyclopropyl-3-{1-[5-(dimethylamino)pyridin-3-yl]-1H-pyrazol-4-yl}-4-methylbenzamide], for which the IC50 came out at 6.4 nM.
The result for `Cc1ccc(C(=O)NC2CC2)cc1-c1cnn(-c2cncc(C(C)N3CCCC3=O)c2)c1` (stereo not shown) [Example 140, N-cyclopropyl-4-methyl-3-(1-{5-[1-(2-oxopyrrolidin-1-yl)ethyl]pyridin-3-yl}-1H-pyrazol-4-yl)benzamide] reads 38 nM; that for `Cc1ccc(C(=O)NC2CC2)cc1-c1cnn(-c2cncc(NC(=O)C3CC3)c2)c1` [Example 144, 3-[1-(5-cyclopropaneamidopyridin-3-yl)-1H-pyrazol-4-yl]-N-cyclo-propyl-4-methylbenzamide], 2.9 nM; that for `Cc1ccc(C(=O)NC2CC2)cc1-c1cnn(-c2cncc(NCCOC(C)(C)C)c2)c1` [Example 55, 3-[1-(5-{[2-(tert-butoxy)ethyl]amino}pyridin-3-yl)-1H-pyrazol-4-yl]-N-cyclopropyl-4-methylbenzamide], 9.7 nM.
To `Cc1ccc(C(=O)NC2CC2)cc1-c1cnn(-c2cncc(OC3CC(CO)(CO)C3)c2)c1` [Example 152, 3-(1-{5-[3,3-bis(hydroxymethyl)cyclobutoxy]pyridin-3-yl}-1H-pyrazol-4-yl)-N-cyclopropyl-4-methylbenzamide] belongs 4.2 nM; to `Cc1ccc(C(=O)NC2CC2)cc1-c1cnn(-c2cncc(OCC3CCOCC3)c2)c1` [Example 147, N-cyclopropyl-4-methyl-3-{1-[5-(oxan-4-ylmethoxy)pyridin-3-yl]-1H-pyrazol-4-yl}benzamide], 8.1 nM.
Take `Cc1ccc(C(=O)NC2CC2)cc1-c1cnn(-c2cncc(NC(=O)NC3CC3)c2)c1` [Example 108, N-cyclopropyl-3-(1-{5-[(cyclopropylcarbamoyl)amino]pyridin-3-yl}-1H-pyrazol-4-yl)-4-methylbenzamide]: inhibition was half-maximal at 4.4 nM (IC50).
The result for `Cc1ccc(C(=O)NC2CC2)cc1-c1cnn(-c2cncc(NCC3CCCO3)c2)c1` (stereo not shown) [Example 59, N-cyclopropyl-4-methyl-3-(1-{5-[(oxolan-2-ylmethyl)amino]pyridin-3-yl}-1H-pyrazol-4-yl)benzamide] reads 9.1 nM.
Take `CC(=O)N1CC[C@H](Oc2cncc(-n3cc(-c4cc(C(=O)NC5CC5)ccc4C)cn3)c2)C1` [Example 129, 3-[1-(5-{[(3S)-1-acetylpyrrolidin-3-yl]oxy}pyridin-3-yl)-1H-pyrazol-4-yl]-N-cyclopropyl-4-methyl-benzamide]: the IC50 stood at 44 nM.
For the compound `Cc1cc(F)c(C(=O)NC2CC2)cc1-c1cnn(-c2cncc(C3CC3)c2)c1` [Example 105, N-cyclopropyl-5-[1-(5-cyclopropyl-pyridin-3-yl)-1H-pyrazol-4-yl]-2-fluoro-4-methylbenzamide], half-maximal inhibition (IC50) was put at 1 nM.
To `COC1CCC(Nc2cncc(-n3cc(-c4cc(C(=O)NC5CC5)ccc4C)cn3)c2)C1` (stereo not shown) [Example 65, N-cyclopropyl-3-(1-{5-[(3-methoxycyclopentyl)amino]pyridin-3-yl}-1H-pyrazol-4-yl)-4-methyl-benzamide] belongs 2.3 nM.
The result for `Cc1ccc(C(=O)NC2CC2)cc1-c1cnn(-c2cncc(CC(=O)O)c2)c1` [Example 51, 2-(5-{4-[5-(cyclopropylcarbamoyl)-2-methylphenyl]-1H-pyrazol-1-yl}pyridin-3-yl)acetic acid] reads 240 nM; that for `CCO[C@H]1COC[C@@H]1Nc1cncc(-n2cc(-c3cc(C(=O)NC4CC4)ccc3C)cn2)c1` [Example 56, N-cyclopropyl-3-[1-(5-{[(3S,4R)-4-ethoxyoxolan-3-yl]amino}pyridin-3-yl)-1H-pyrazol-4-yl]-4-methyl-benzamide], 10 nM.
In turn, `Cc1ccc(C(=O)NC2CC2)cc1-c1cnn(-c2cncc(O)c2)c1` [Example 95, N-cyclopropyl-3-[1-(5-hydroxypyridin-3-yl)-1H-pyrazol-4-yl]-4-methyl-benzamide] came in with an IC50 of 6.1 nM.
The result for `Cc1ccc(C(=O)NC2CC2)cc1-c1cnn(-c2cncc(NC(=O)NC(C)C)c2)c1` [Example 110, N-cyclopropyl-4-methyl-3-[1-(5-{[(propan-2-yl)carbamoyl]amino}pyridin-3-yl)-1H-pyrazol-4-yl] benzamide] reads 3.4 nM.
Compound `CC(=O)Nc1cncc(-n2cc(-c3cc(C(=O)NC4CC4)ccc3C)cn2)c1` [Example 111, N-cyclopropyl-3-[1-(5-acetamido-pyridin-3-yl)-1H-pyrazol-4-yl]-4-methylbenzamide] yielded an IC50 of 5.3 nM.
The result for `COc1cncc(-n2cnc(-c3cc(C(=O)NC4CC4)c(F)cc3Cl)c2)c1` [Example 33, 4-chloro-N-cyclopropyl-2-fluoro-5-[1-(5-methoxypyridin-3-yl)-1H-imidazol-4-yl]benzamide] reads 7.4 nM; that for `COc1cncc(-n2cc(-c3cc(C(=O)NC4CC4)c(F)cc3C)cn2)c1` [Example 25, N-cyclopropyl-2-fluoro-5-[1-(5-methoxypyridin-3-yl)-1H-pyrazol-4-yl]-4-methylbenzamide], 3.7 nM; that for `COc1cncc(-n2cnc(-c3cc(C(=O)NC4CC4)ccc3Cl)c2)c1` [Example 54, 4-chloro-N-cyclopropyl-3-[1-(5-methoxypyridin-3-yl)-1H-imidazol-4-yl]benzamide], 41 nM.
The result for `Cc1ccc(C(=O)NC2CC2)cc1-c1cnn(-c2cncc(NC3CCOCC3)c2)c1` [Example 78, N-cyclopropyl-4-methyl-3-(1-{5-[(oxan-4-yl)amino]pyridin-3-yl}-1H-pyrazol-4-yl)benzamide] reads 1.3 nM.
